Results published in paper PMC7026418, “The kinase polypharmacology landscape of clinical PARP inhibitors” (Scientific Reports, 2020).
Read-outs that look alike come from different tables or passages of the source.

Legend:
Test in all cases: biochemical
Parameters in all cases: DiscoveRx KINOMEscan active site-directed competition binding; percent of control kinase bound to immobilised ligand
[1] = target: T1, ABL1(T315I)-nonphosphorylated (Homo sapiens, UniProt P00519, T315I)
T1 construct: nonphosphorylated

[2] = target: ABL2 (Homo sapiens, UniProt P42684)
Sequence of ABL2 (P42684 whole entry): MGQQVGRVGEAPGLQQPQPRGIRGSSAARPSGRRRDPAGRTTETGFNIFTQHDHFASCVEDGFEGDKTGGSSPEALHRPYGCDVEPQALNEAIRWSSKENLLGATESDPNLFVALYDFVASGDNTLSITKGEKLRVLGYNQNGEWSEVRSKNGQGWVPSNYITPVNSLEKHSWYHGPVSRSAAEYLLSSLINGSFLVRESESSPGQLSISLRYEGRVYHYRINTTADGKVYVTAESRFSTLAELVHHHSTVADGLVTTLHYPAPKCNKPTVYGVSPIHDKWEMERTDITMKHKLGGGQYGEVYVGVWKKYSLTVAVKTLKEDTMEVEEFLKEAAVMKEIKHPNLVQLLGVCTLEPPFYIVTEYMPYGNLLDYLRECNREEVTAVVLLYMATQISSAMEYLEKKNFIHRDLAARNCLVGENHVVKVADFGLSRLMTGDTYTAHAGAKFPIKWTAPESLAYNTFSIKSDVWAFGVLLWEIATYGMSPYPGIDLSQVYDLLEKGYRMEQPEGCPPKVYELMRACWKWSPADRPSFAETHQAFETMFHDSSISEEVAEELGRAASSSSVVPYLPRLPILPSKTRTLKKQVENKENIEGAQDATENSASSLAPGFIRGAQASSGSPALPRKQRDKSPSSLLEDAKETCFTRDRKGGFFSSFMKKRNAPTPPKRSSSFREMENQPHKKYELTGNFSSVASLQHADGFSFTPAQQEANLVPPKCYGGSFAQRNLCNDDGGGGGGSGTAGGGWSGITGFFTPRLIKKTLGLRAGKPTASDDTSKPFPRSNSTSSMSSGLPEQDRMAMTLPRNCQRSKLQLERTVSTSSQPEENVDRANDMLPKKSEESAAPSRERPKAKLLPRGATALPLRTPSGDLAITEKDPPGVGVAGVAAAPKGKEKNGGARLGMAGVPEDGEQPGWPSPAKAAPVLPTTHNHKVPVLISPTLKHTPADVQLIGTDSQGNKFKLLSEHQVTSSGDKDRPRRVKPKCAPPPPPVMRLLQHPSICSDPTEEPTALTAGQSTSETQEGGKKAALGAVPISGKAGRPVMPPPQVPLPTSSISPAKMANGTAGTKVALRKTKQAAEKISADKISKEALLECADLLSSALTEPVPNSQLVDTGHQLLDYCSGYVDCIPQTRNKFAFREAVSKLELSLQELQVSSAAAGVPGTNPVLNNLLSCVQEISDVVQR

[3] = target: CSNK2A1 (Homo sapiens, UniProt P68400)
Sequence of CSNK2A1 (P68400 whole entry): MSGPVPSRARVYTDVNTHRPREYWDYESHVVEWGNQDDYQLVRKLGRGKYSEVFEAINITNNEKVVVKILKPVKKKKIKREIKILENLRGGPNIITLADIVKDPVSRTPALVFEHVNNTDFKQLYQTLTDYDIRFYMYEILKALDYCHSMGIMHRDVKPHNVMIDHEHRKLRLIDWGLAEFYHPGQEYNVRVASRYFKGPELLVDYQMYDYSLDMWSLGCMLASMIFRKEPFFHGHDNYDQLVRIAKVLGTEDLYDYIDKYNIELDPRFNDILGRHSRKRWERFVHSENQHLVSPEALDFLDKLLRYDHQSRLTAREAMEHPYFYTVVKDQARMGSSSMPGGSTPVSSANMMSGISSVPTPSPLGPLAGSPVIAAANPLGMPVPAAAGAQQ

[4] = target: T2, FAK (Homo sapiens, UniProt Q05397)
T2 construct: gene PTK2

[5] = target: T3, FLT3(ITD,F691L) (Homo sapiens, UniProt P36888, F691L/ITD)
T3 sequence (P36888 564-993 F691L): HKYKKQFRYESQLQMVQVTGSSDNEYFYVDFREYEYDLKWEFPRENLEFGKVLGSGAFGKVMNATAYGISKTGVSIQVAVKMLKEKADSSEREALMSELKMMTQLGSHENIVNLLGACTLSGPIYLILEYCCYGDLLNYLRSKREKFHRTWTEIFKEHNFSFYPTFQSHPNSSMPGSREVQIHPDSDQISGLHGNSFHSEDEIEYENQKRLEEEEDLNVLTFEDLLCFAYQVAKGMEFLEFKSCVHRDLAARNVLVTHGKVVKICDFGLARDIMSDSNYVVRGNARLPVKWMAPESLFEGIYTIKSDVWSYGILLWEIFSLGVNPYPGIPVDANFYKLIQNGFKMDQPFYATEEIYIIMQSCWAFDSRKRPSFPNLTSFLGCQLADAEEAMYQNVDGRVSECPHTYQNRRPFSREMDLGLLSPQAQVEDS

[6] = target: GSK3A (Homo sapiens, UniProt P49840)
Sequence of GSK3A (P49840 whole entry): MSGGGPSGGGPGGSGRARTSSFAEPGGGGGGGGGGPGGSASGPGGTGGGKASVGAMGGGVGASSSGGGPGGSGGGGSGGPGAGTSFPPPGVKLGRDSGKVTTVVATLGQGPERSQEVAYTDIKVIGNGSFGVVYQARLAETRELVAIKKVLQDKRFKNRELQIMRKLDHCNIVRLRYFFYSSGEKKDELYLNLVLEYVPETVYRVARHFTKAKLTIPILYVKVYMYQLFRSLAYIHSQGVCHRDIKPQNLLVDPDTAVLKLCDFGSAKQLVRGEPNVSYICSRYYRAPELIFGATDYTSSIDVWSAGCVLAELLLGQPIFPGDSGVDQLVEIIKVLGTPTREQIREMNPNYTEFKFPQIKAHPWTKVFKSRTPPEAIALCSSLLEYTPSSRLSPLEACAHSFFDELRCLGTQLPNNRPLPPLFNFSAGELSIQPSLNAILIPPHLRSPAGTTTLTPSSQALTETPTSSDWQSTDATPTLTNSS

[7] = target: KIT(V559D,V654A) (Homo sapiens, UniProt P10721, V559D/V654A)
Sequence of KIT(V559D,V654A) (P10721 whole entry V559D/V654A): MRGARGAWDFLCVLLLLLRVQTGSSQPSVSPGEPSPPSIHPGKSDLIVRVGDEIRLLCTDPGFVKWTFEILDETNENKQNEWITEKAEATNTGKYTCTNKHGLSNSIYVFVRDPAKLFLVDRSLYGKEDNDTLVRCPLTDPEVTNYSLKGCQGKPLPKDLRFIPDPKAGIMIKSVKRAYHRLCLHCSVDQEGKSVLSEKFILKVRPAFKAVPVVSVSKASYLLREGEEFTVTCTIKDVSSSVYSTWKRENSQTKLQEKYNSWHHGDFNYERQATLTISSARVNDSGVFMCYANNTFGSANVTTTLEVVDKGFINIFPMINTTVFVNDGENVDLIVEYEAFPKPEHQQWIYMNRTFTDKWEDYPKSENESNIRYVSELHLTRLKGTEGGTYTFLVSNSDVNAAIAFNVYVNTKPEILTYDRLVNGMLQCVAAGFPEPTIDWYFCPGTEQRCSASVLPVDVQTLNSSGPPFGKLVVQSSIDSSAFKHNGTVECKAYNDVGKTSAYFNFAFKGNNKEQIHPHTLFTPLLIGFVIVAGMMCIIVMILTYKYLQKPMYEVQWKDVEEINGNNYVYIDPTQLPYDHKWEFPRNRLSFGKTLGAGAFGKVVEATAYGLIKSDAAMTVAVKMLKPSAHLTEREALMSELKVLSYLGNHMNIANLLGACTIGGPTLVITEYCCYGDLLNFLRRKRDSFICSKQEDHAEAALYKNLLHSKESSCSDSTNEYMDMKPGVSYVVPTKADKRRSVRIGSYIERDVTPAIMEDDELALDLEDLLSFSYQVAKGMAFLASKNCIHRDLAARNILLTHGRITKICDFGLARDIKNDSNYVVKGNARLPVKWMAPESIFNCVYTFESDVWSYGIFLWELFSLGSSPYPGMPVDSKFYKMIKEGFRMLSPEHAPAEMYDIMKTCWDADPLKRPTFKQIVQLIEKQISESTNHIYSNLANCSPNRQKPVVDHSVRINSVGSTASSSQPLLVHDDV

[8] = target: T4, MLK1 (Homo sapiens, UniProt P80192)
T4 construct: gene MAP3K9

[9] = target: T5, NIK (Homo sapiens, UniProt Q99558)
T5 construct: gene MAP3K14
T5 sequence (Q99558 whole entry): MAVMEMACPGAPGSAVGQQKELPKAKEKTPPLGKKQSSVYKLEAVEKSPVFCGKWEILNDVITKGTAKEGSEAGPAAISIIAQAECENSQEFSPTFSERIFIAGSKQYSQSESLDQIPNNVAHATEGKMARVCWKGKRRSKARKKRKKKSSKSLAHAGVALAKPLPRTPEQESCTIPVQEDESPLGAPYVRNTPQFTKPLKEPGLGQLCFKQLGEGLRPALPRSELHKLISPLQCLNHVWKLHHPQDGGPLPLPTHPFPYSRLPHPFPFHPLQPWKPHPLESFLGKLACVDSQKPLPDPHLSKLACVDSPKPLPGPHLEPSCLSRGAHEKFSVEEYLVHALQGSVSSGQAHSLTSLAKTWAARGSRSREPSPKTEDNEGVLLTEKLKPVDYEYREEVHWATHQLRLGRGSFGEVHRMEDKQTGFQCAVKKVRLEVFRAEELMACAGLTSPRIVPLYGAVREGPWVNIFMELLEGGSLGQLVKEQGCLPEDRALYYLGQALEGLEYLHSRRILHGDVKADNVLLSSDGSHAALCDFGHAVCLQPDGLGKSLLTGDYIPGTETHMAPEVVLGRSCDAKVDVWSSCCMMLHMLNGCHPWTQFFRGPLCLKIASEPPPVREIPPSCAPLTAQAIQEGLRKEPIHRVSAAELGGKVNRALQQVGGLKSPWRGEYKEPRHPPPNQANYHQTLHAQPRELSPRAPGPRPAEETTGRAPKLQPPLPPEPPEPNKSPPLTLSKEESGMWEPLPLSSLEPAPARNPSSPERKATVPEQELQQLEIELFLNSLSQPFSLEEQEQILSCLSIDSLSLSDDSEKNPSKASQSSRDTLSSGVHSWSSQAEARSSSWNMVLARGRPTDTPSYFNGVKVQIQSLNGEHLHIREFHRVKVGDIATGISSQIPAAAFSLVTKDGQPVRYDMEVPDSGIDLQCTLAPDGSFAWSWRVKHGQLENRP

[10] = target: PLK2 (Homo sapiens, UniProt Q9NYY3)
[11] = target: T6, PYK2 (Homo sapiens, UniProt Q14289)
T6 construct: gene PTK2B
T6 sequence (Q14289 whole entry): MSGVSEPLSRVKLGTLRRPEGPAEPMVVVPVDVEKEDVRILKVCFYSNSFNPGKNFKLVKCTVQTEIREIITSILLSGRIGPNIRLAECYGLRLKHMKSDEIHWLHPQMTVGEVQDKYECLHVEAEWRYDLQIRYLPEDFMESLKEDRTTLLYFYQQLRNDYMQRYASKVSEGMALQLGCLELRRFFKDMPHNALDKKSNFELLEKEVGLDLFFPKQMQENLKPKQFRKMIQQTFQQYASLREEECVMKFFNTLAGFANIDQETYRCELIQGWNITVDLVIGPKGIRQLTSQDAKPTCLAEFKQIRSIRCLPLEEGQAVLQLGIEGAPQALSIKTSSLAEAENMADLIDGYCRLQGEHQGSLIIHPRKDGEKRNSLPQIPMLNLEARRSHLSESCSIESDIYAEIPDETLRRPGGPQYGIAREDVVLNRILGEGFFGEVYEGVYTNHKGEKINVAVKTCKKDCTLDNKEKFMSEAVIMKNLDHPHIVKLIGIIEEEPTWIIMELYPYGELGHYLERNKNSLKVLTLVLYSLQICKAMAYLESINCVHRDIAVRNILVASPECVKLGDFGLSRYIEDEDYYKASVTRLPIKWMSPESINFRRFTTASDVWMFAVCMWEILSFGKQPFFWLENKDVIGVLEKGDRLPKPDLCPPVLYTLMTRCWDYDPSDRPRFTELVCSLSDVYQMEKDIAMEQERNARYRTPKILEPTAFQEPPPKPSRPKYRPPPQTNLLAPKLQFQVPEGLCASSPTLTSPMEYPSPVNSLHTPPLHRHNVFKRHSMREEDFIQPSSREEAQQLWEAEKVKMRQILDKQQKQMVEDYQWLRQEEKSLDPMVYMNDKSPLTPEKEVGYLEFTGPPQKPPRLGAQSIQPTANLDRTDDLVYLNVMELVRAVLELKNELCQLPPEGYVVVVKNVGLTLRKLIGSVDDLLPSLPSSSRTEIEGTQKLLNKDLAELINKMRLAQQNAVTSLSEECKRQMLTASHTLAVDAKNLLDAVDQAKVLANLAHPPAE

[12] = target: T7, TAOK3 (Homo sapiens, UniProt Q9H2K8)
T7 sequence (Q9H2K8 1-898): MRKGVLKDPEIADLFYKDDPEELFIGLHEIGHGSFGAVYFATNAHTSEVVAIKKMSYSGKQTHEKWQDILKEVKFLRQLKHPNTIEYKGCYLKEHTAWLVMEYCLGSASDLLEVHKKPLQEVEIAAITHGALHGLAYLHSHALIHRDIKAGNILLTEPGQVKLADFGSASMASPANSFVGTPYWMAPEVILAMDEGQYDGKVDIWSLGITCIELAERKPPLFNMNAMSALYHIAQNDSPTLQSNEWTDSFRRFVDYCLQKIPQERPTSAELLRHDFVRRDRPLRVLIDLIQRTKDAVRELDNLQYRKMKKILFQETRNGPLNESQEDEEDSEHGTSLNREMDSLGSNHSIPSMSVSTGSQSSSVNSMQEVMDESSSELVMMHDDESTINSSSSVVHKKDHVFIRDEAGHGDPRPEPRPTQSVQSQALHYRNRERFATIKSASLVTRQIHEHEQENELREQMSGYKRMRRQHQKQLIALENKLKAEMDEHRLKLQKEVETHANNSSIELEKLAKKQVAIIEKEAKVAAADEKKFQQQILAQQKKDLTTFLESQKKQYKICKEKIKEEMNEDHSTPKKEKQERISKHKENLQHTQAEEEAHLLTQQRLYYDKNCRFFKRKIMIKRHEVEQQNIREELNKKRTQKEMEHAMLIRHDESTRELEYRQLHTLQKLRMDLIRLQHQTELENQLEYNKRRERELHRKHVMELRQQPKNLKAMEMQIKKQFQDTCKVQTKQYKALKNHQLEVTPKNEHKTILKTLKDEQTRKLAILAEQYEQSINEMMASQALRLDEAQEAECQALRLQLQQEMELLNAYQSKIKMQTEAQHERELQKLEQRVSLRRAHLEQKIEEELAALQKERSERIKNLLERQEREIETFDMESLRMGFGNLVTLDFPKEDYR

[13] = target: T8, VPS34 (Homo sapiens, UniProt Q8NEB9)
T8 construct: gene PIK3C3

[14] = target: T9, YSK1 (Homo sapiens, UniProt O00506)
T9 construct: gene STK25

[15] = read-out: Talazoparib (BMN 673) / %Ctrl @ 10000nM
[16] = read-out: Olaparib / %Ctrl @ 10000nM
[17] = read-out: Niraparib (MK-4827) / %Ctrl @ 10000nM
[18] = read-out: Rucaparib / %Ctrl @ 10000nM, binding competition, % of control

## Cn1ncnc1[C@H]1c2n[nH]c(=O)c3cc(F)cc(c23)N[C@@H]1c1ccc(F)cc1 [Talazoparib]
[1]; [15]
  percent of control binding at 10 µM: 75%
[2]; [15]
  percent of control binding at 10 µM: 93%
[3]; [15]
  percent of control binding at 10 µM: 98%
[4]; [15]
  percent of control binding at 10 µM: 100%
[5]; [15]
  percent of control binding at 10 µM: 100%
[6]; [15]
  percent of control binding at 10 µM: 100%
[7]; [15]
  percent of control binding at 10 µM: 96%
[8]; [15]
  percent of control binding at 10 µM: 77%
[9]; [15]
  percent of control binding at 10 µM: 100%
[10]; [15]
  percent of control binding at 10 µM: 100%
[11]; [15]
  percent of control binding at 10 µM: 97%
[12]; [15]
  percent of control binding at 10 µM: 100%
[13]; [15]
  percent of control binding at 10 µM: 100%
[14]; [15]
  percent of control binding at 10 µM: 80%

## O=C(c1cc(Cc2n[nH]c(=O)c3ccccc23)ccc1F)N1CCN(C(=O)C2CC2)CC1 [Olaparib]
[1]; [16]
  percent of control binding at 10 µM: 79%
[2]; [16]
  percent of control binding at 10 µM: 100%
[3]; [16]
  percent of control binding at 10 µM: 88%
[4]; [16]
  percent of control binding at 10 µM: 100%
[5]; [16]
  percent of control binding at 10 µM: 84%
[6]; [16]
  percent of control binding at 10 µM: 95%
[7]; [16]
  percent of control binding at 10 µM: 95%
[8]; [16]
  percent of control binding at 10 µM: 100%
[9]; [16]
  percent of control binding at 10 µM: 89%
[10]; [16]
  percent of control binding at 10 µM: 95%
[11]; [16]
  percent of control binding at 10 µM: 99%
[12]; [16]
  percent of control binding at 10 µM: 94%
[13]; [16]
  percent of control binding at 10 µM: 90%
[14]; [16]
  percent of control binding at 10 µM: 97%

## NC(=O)c1cccc2cn(-c3ccc([C@@H]4CCCNC4)cc3)nc12 [Niraparib]
[1]; [17]
  percent of control binding at 10 µM: 90%
[2]; [17]
  percent of control binding at 10 µM: 85%
[3]; [17]
  percent of control binding at 10 µM: 6.8%
[4]; [17]
  percent of control binding at 10 µM: 100%
[5]; [17]
  percent of control binding at 10 µM: 42%
[6]; [17]
  percent of control binding at 10 µM: 48%
[7]; [17]
  percent of control binding at 10 µM: 90%
[8]; [17]
  percent of control binding at 10 µM: 87%
[9]; [17]
  percent of control binding at 10 µM: 100%
[10]; [17]
  percent of control binding at 10 µM: 92%
[11]; [17]
  percent of control binding at 10 µM: 86%
[12]; [17]
  percent of control binding at 10 µM: 100%
[13]; [17]
  percent of control binding at 10 µM: 14%
[14]; [17]
  percent of control binding at 10 µM: 99%

## CNCc1ccc(-c2[nH]c3cc(F)cc4c3c2CCNC4=O)cc1 [Rucaparib]
[1]; [18]
  percent of control binding at 10 µM: 72%
[2]; [18]
  percent of control binding at 10 µM: 100%
[3]; [18]
  percent of control binding at 10 µM: 2.2%
[4]; [18]
  percent of control binding at 10 µM: 100%
[5]; binding competition, % of control
  Rucaparib / %Ctrl @ 10000nM: 26%
[6]; [18]
  percent of control binding at 10 µM: 21%
[7]; [18]
  percent of control binding at 10 µM: 92%
[8]; [18]
  percent of control binding at 10 µM: 100%
[9]; [18]
  percent of control binding at 10 µM: 74%
[10]; [18]
  percent of control binding at 10 µM: 76%
[11]; [18]
  percent of control binding at 10 µM: 100%
[12]; [18]
  percent of control binding at 10 µM: 91%
[13]; [18]
  percent of control binding at 10 µM: 80%
[14]; [18]
  percent of control binding at 10 µM: 87%
